Source: ChEMBL document CHEMBL1201862, “PubChem BioAssay data set” (2004)
Several values for one entry are separate records, joined by “and”; a condition that tells them apart may be missing. Identical values can stand only once.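 Where inhibition never reached the appropriate level, the endpoint shown equals the highest concentration tested. Otherwise, values were interpolated linearly from a five-concentration, 48-hour dose response in 96-well plates. At the GI50, growth is halved.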 Activity calls are given as the source filed them. Cut-off read from the data, not from the text of the source: active = GI50 up to about 1.1 µM and inactive = higher. Starred links: 1 amine or outer side, 2 acyl side, 3 side chain; linkers in the order of their positions; H or OH if unused. Positions of bridges follow the written chain, without caps; N, C: chain ends. Non-standard residues stand in square brackets, D forms with d. Residues, ends and D or L forms follow the SMILES beside them. Chains are numbered I, II in the order given. Actinocin(9to1) = Cc1c2oc3c(C)ccc(C(=O)[*:1])c3nc-2c(C(=O)[*:2])c(N)c1=O; NMeY = CN[CH](Cc1ccc(O)cc1)C(=O)O; Sar = CNCC(=O)O

How the values were obtained:
Test in all cases: NCI-60 cell line screen, 48 h
Hs-578T = test system: Hs-578T
OVCAR-4 = test system: OVCAR-4
A498 = test system: A498
COLO 205 = test system: COLO 205
Malme-3M = test system: Malme-3M
HCT-116 = test system: HCT-116
LOX IMVI = test system: LOX IMVI
SNB-19 = test system: SNB-19
SF-268 = test system: SF-268
NCI/ADR-RES = test system: NCI/ADR-RES
A549 = test system: A549
HCC 2998 = test system: HCC 2998
U-251 = test system: U-251
MCF7 = test system: MCF7
SW-620 = test system: SW-620
MDA-N = test system: MDA-N
RPMI-8226 = test system: RPMI-8226
NCI-H226 = test system: NCI-H226
NCI-H522 = test system: NCI-H522
MDA-MB-435 = test system: MDA-MB-435
M14 = test system: M14
BT-549 = test system: BT-549
SK-MEL-5 = test system: SK-MEL-5
HL-60 = test system: HL-60
NCI-H460 = test system: NCI-H460
HOP-62 = test system: HOP-62
SF-539 = test system: SF-539
SR = test system: SR
ACHN = test system: ACHN
OVCAR-3 = test system: OVCAR-3
DU-145 = test system: DU-145
SNB-75 = test system: SNB-75
HCT-15 = test system: HCT-15
SN12C = test system: SN12C
EKVX = test system: EKVX
IGROV-1 = test system: IGROV-1
MDA-MB-231 = test system: MDA-MB-231
UACC-62 = test system: UACC-62
UO-31 = test system: UO-31
786-0 = test system: 786-0
K562 = test system: K562
OVCAR-5 = test system: OVCAR-5
TK-10 = test system: TK-10
KM12 = test system: KM12
CAKI-1 = test system: CAKI-1
OVCAR-8 = test system: OVCAR-8
HOP-92 = test system: HOP-92
MOLT-4 = test system: MOLT-4
SK-MEL-2 = test system: SK-MEL-2
SF-295 = test system: SF-295
SK-MEL-28 = test system: SK-MEL-28
SK-OV-3 = test system: SK-OV-3
NCI-H23 = test system: NCI-H23
UACC-257 = test system: UACC-257
PC-3 = test system: PC-3
CCRF-CEM = test system: CCRF-CEM
HT-29 = test system: HT-29

Measured: GI50

O=C(O)c1ccccc1/N=N\c1c(O)c(S(=O)(=O)O)cc2cc(S(=O)(=O)O)ccc12
inactive: Hs-578T 1.97 µM | A498 > 100 µM | COLO 205 1.2 µM | HCT-116 1.63 µM | LOX IMVI > 100 µM | SNB-19 2.81 µM | SF-268 1.8 µM | A549 1.82 µM | HCC 2998 > 100 µM | U-251 1.48 µM | MCF7 > 100 µM | SW-620 1.85 µM | MDA-N 2.41 µM | RPMI-8226 1.35 µM | MDA-MB-435 2.65 µM | M14 3.83 µM | SK-MEL-5 4.72 µM | NCI-H460 > 100 µM
active: OVCAR-4 96.2 nM | Malme-3M 0.0711 µM | NCI/ADR-RES 1.06 µM | NCI-H226 23.9 nM | NCI-H522 23.1 nM | BT-549 201 nM | HL-60 < 10 nM

O=C(O)CNC(=O)c1c2ccccc2nc2ccccc12
inactive: HOP-62 > 100 µM | SF-539 > 100 µM | SR > 100 µM | OVCAR-4 > 100000 nM | ACHN > 100 µM | A498 > 100 µM | OVCAR-3 > 100 µM | DU-145 > 100 µM | SNB-75 > 100 µM | SN12C > 100 µM | EKVX > 100 µM | IGROV-1 > 100 µM | MDA-MB-231 > 100 µM | COLO 205 > 100 µM | Malme-3M > 100 µM | HCT-116 > 100 µM | UACC-62 > 100 µM | UO-31 > 100 µM | 786-0 > 100 µM | LOX IMVI > 100 µM | SNB-19 > 100 µM | K562 > 100 µM | OVCAR-5 > 100 µM | TK-10 > 100 µM | SF-268 > 100 µM | NCI/ADR-RES > 100 µM | KM12 > 100 µM | A549 > 100 µM | HCC 2998 > 100 µM | CAKI-1 > 100 µM | U-251 > 100 µM | MCF7 > 100 µM | SW-620 > 100 µM | OVCAR-8 > 100 µM | HOP-92 > 100 µM | RPMI-8226 > 100 µM | NCI-H226 > 100000 nM | MOLT-4 > 100 µM | SK-MEL-2 > 100 µM | SF-295 > 100 µM | SK-MEL-28 > 100 µM | NCI-H522 > 100000 nM | SK-OV-3 > 100 µM | MDA-MB-435 > 100 µM | NCI-H23 > 100 µM | UACC-257 > 100 µM | M14 > 100 µM | BT-549 20800 nM | PC-3 > 100 µM | SK-MEL-5 > 100 µM | CCRF-CEM > 100 µM | NCI-H460 > 100 µM | HT-29 > 100 µM
> 100 µM: HCT-15

Cc1c2oc3c(C)ccc(C(=O)NC4C(=O)NC(C(C)C)C(=O)N5CCCC5C(=O)N(C)CC(=O)N(C)C(Cc5ccc(O)cc5)C(=O)OC4C)c3nc-2c(C(=O)NC2C(=O)NC(C(C)C)C(=O)N3CCCC3C(=O)N(C)CC(=O)N(C)C(Cc3ccc(O)cc3)C(=O)OC2C)c(N)c1=O (stereo not drawn) (I: TVP[Sar][NMeY] / II: TVP[Sar][NMeY]; ester I:1-I:C, II:1-II:C; linker I:N-II:N via Actinocin(9to1); configuration not given here)
active: SF-539 12.4 nM and 15.3 nM | Hs-578T 3.71 nM and 4.25 nM | OVCAR-4 43 nM and 42.6 nM | SN12C 5.69 nM and 11 nM | IGROV-1 6.05 nM and 7.46 nM | SF-268 11 nM and 17.7 nM | KM12 13.2 nM and 17.1 nM | MCF7 1.89 nM and 2.16 nM | RPMI-8226 8.59 nM and 7.03 nM | NCI-H226 20.6 nM and 39.3 nM | SK-MEL-2 9.06 nM and 13.1 nM | NCI-H522 2.25 nM and 4.33 nM | BT-549 15 nM and 17.3 nM | HL-60 4.3 nM and 5.39 nM
